# Laboratory results from US4908364A, “Substituted 3-phenyl-7H-thiazol[3,2-b][1,2,4]-triazin-7-ones” (Hoechst Aktiengesellschaft, priority 1987, dated 1990).
# pIC50: −log10 of the molar value. Read-outs that look alike come from different tables or passages of the source.
# Columns and labels:
# Adjuvant arthritis = Adjuvant arthritis (paw volume increase); assay type: in vivo, male rats of a Wistar-Lewis strain; conditions: for Adjuvant arthritis (% inhibition at 50 mg/kg p.o.): rat, 50 mg/kg p.o. once daily, day 1 to day 5, reduction in increase in paw volume vs control; for ED50: Rattus norvegicus, po, read-out: ED50 in adjuvant arthritis
# Description: The investigations were carried out by the method of Pearson (Arthrit. Rheum. 2 (1959) p. 44). The experimental animals used were male rats of a Wistar-Lewis strain having a body weight between 130 and 200 g. The compounds to be tested were administered orally (p.o.) once daily from day 1 to day 5 of the experiment in doses of 50 mg per kg of body weight. The animals of a control group received only the vehicle. Each preparation and control group comprised 8 animals. The criterion used to determine an action was the percentage reduction in the increase in paw volume compared to that of the untreated control group.
# in vivo = conditions: mouse, ip; for LD50 at 168 h: read-out: Acute toxicity LD50
# Description: The LD50 values were determined by a standard method from the mortality occurring within 7 days in NMRI (Naval Medical Research Institute) mice (6 animals per dose) after a single intraperitoneal (i.p.) administration.
# [1] = Acute gastral ulcerogenity; design: species or system male Sprague-Dawley rats; conditions: rat, in vivo, po
# Description: The investigation took place in each case on 10 male Sprague-Dawley rats in which the gastric mucous membrane had been sensitized by hunger stress. The body weight of the animals was between 200 and 300 g. While allowing free access to the drinking water, the feed was withdrawn 48 hours before administration of the test preparations until sacrifice of the animals. The rats were sacrificed 24 hours after oral administration of the substance, and the stomachs were removed, cleaned under running water and inspected for mucous membrane lesions. All macroscopically visible lesions were regarded as ulcers. The number of animals having ulcers was determined for each dose, and the UD50 values, i.e. the doses at which lesions were caused in 50% of the animals, were calculated from this number by the method of Litchfield and Wilcoxon (J. Pharmacol. Exp. Ther. 96 (1949) p. 99).
# [2] = test system: Arthritis induced by type II collagen; assay: Arthritis induced by type II collagen (paw volume); assay type: in vivo, male Wistar rats; conditions: for inhibition of the increase in paw volume, collagen arthritis: oral once daily, 20-day treatment, naproxen at the same dosage
# Description: (§1) In this experiment, arthritis was induced in male Wistar rats using type II collagen, which was obtained by standard methods of Miller and Rhodes (Meth. Enzymol. 82 (1982) p. 33) from the nasal septum of the calf and, mixed with Freund's incomplete adjuvant, was injected intradermally into the animals. This immunization process was repeated 7 days later. 20 days after the initial immunization, the affected rats were divided into groups each comprising 7 animals, which received the particular test substance or the pure vehicle (control group) orally once daily in the subsequent 20-day treatment phase. On day 41 of the experiment, i.e. one day after the final administration of substance, the increase in volume of both rear paws was determined.
# lymphocytes [3] = assay: Immune activity of spleen lymphocytes towards mitogens in collagen arthritis; assay type: in vivo, male Wistar rats; conditions: Example 1: 12 mg/kg p.o.
# Description: as §1
# The immune status of lymphocytes is also disturbed sensitively in this model of collagen arthritis.
# [4] = test system: microsomal lipid peroxidation; assay: In-vitro inhibition of lipid peroxidation, microsomes (thiobarbituric acid test); assay type: biochemical; conditions: microsomes from the rat liver
# From the text: (§2) Further convincing evidence of the pronounced protective action of the compounds according to the invention against aggressive oxygen radicals is provided by the thiobarbituric acid test of A. Ottolenghi (Arch. Biochem. Biophys. 79 (1959) pp. 355-363). Using this in-vitro method, the affect on microsomal and mitochondrial lipid peroxidation by antioxidatively active preparations can be determined from the malonodialdehyde produced on oxidative degredation of membrane-bound, polyunsaturated fatty acids.
# (§3) Here too, the compounds of the formula I exerted a strong inhibitory action.
# [5] = test system: mitochondrial lipid peroxidation; assay: In-vitro inhibition of lipid peroxidation, mitochondria (thiobarbituric acid test); assay type: biochemical; conditions: mitochondria from the rat liver
# From the text: as §2, §3
# lymphocytes [6] = assay: Stimulation of suppressed immune response of lymphocytes towards mitogens in adjuvant arthritis; assay type: in vivo, rat; conditions: oral, Example 1 at 3.15 and 6.3 mg/kg, naproxen in doses up to 25 mg/kg
# 5-lipoxygenase = assay: Inhibition of 5-lipoxygenase in isolated polymorphonuclear granulocytes; assay type: cell-based, human; conditions: concentration range between 10^-5 and 10^-6 mol/l, pre-incubation 15 minutes
# Description: The inhibitory action of the compounds according to the invention on 5-lipoxygenase-catalysed degredation of arachidonic acid was investigated,as usual, in in-vitro experiments on isolated polymorphonuclear human granulocytes. To this purpose, cells stimulated by calcium ionophor A 23 187 (Calbiochem GmbH, Frankfurt/Main, FRG, Biochemical and Immunochemical Catalog 1985, p. 284) were incubated with ^14 C-labeled arachidonic acid, and the major radioactive degredation products of arachidonic acid, 5-hydroxyeicosatetraenoic acid (5-HETE) and leukotriene […] (LTB4), which has a particularly strong proinflammatory action, formed after 15 minutes at 37° C. by biotransformation were determined quantitatively with the aid of a radio monitor after separation by high-pressure liquid chromatography (HPLC).
# [7] = test system: Adriamycin-induced inflammation; assay: Adriamycin-induced inflammation; assay type: in vivo, male Sprague-Dawley rats; conditions: for Increase in paw volume: 72 hours, control 430; for Protective action in %: * significance p < 0.05; for protective effect against tissue destruction induced by Adriamycin: oral
# From the text: According to current opinion, aggressive oxygen radicals, which are formed to excess during the chronic inflammation process and, as highly toxic inflammation mediators themselves, perpetually maintain the connective tissue destruction which proceeds via an irreversible lipid peroxidation of the cell membranes, are permanently involved in the progressive course, caused by a multitude of factors, of rheumatoid arthritis and other inflammatory disorders. As a result, antioxidatively active pharmaceuticals having the ability to deactivate these extremely cytotoxic oxygen radicals should permit specific engagement in the chronic course of the inflammation. A suitable animal model for this type of tissue destruction caused by oxygen radicals is Adriamycin (doxorubicin) induced inflammation in rats. The investigations were carried out by the method of D. M. Siegel et al. (Inflammation 4 (1980) p. 233) on male Sprague-Dawley rats having a body weight between 200 and 230 g in groups of 7 animals each, which received 0.1 mg of Adriamycin, dissolved in 0.1 ml of a 0.9% strength sodium chloride solution, by subcutaneous injection into the left rear paw. The increase in paw volume was determined by plethysmographic measurement 72 hours thereafter as a measure of the degree of inflammation. The test preparations were administered orally in 1% strength aqueous carboxymethylcellulose suspension once daily on 4 successive days, starting with the day of Adriamycin injection.
# Arthus reaction = assay: Active Arthus reaction; assay type: in vivo, female and male Sprague-Dawley rats; conditions: oral
# Description: The experimental animals used were female and male Sprague-Dawley rats having a body weight between 80 and 100 g; they were injected subcutaneously into the tail root with 0.5 ml of an emulsion of pertussis vaccine and ovalbumin in paraffin oil. After two weeks, the rats were divided into groups of 8 animals each. The respective test substance or the pure vehicle (positive control) were administered orally 24 hours and one hour before induction of the Arthus reaction by injecting 0.1 ml of a 0.4% strength ovalbumin solution into the right rear paw. Sodium chloride solution was injected into the left paw. A group of non-sensitized animals (negative control) was likewise treated with ovalbumin in order to be able to exclude non-specific reactions to the protein. The measurement parameter used for the action of the preparation was the inhibition of the increase in paw volume compared to that of a sensitized, but untreated control group (positive control) 4 hours after ovalbumin provocation, when the swelling reaches its maximum.
# [8] = NMRI mice, single i.p. administration, mortality within 7 days
SMILES,Adjuvant arthritis (% inhibition at 50 mg/kg p.o.) (Adjuvant arthritis) [%],LD50 at 168 h (in vivo; [8]) [mg/kg],TD50 at 24 h [1] [mg/kg],LD50 at 168 h (in vivo) [mg/kg],"inhibition of the increase in paw volume, collagen arthritis [2]",ED50 (Adjuvant arthritis) [mg/kg],effect on immune function of lymphocytes in collagen arthritis (lymphocytes [3]),normalization of the immune reactivity of lymphocytes towards mitogens (lymphocytes [6]),protective effect against tissue destruction induced by Adriamycin [7],further results
"Cc1cc(-c2csc3nc(=O)cnn23)cc(C(C)(C)C)c1O [Example 2, 3-(3-Tert.butyl-5-methyl-4-hydroxyphenyl)-7H-thiazolo[3,2-b][1,2,4]triazin-7-one]",41,> 1200,> 400,,,,,,,
Cc1nn2c(-c3cc(C(C)(C)C)c(O)c(C(C)(C)C)c3)csc2nc1=O [Example 6],50,,> 200,> 1200,,,,,,
"CC(C)(C)c1cc(-c2csc3nc(=O)cnn23)cc(C(C)(C)C)c1O [Example 1, 3-(3,5-Di-tert.butyl-4-hydroxyphenyl)-7H-thiazolo[3,2-b][1,2,4]triazin-7-one]",67,> 1200,> 400,,dose-dependent inhibition of the increase in paw volume,10.9,completely normalized the immune function of both T and B lymphocytes,substantial normalization of the immune reactivity,"strong, dose-dependent protective effect","minimal effective dose ([2]; Rattus norvegicus, po, collagen arthritis, p.o., read-out: dose from which inhibition of the increase in paw volume was statistically significant): ≥ 25 mg/kg; pIC50 [4]: 6.22; pIC50 [5]: 5.52; selectivity ratio (in vivo; LD50 (mice i.p.) / ED50 (adjuvant arthritis), read-out: therapeutic range, quotient LD50/ED50): > 110; selectivity ratio [1]: > 36.7; inhibition of formation of 5-HETE (5-lipoxygenase): significantly inhibited; inhibition of formation of LTB4 (5-lipoxygenase): significantly inhibited; Increase in paw volume ([7]; 20 mg/kg p.o.): 220 µL; Protective action in % ([7]; 20 mg/kg p.o.): 49%; Increase in paw volume ([7]; 40 mg/kg p.o.): 200 µL; Protective action in % ([7]; 40 mg/kg p.o.): 54%; Increase in paw volume ([7]; 80 mg/kg p.o.): 10 µL; Protective action in % ([7]; 80 mg/kg p.o.): 98%"
"CC(C)(C)c1cc(-c2csc3nc(=O)c(CO)nn23)cc(C(C)(C)C)c1O [Example 3, 3-(3,5-Di-tert.butyl-4-hydroxyphenyl)-6-hydroxymethyl-7H-thiazolo[3,2-b][1,2,4]triazin-7-one]",41,> 1200,> 200,,,,,,,
CCCc1nn2c(-c3cc(C(C)(C)C)c(O)c(C(C)(C)C)c3)csc2nc1=O [Example 9],45,,> 200,> 1200,,,,,,
"COc1ccc2cc(C(C)C(=O)O)ccc2c1 (stereo not shown) [Naproxen, 2-(6-methoxy-2-naphthyl)-propionic acid, reference compound]",55,,,,only non-significant inhibition values,17.5,no effect,ineffective,ineffective,effect on Arthus reaction (Arthus reaction): ineffective
